We go through 9 compounds from PubChem BioAssay (NCI).

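Following 48 hours of exposure in 96-well plates, responses at five concentrations were used to interpolate endpoints linearly. GI50: concentration for 50% inhibition of growth. The concentration for full growth arrest is given as TGI.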 Where only a bound is given, the exact number is not on record here.

What all share (test): NCI anticancer screen, dose series, 48 h
The test system of experiment [1] is CCRF-CEM leukemia.
Experiment [2] relates to SK-MEL-2 melanoma.
Experiment [3] deals with NCI-H226 lung.
Experiment [4] relates to COLO 205 colon.
The test system of experiment [5] is T-47D breast.
Experiment [6] relates to MDA-MB-435.
The test system of experiment [7] is HT29 colon.
In experiment [8] the test system is MALME-3M melanoma.
The test system of experiment [9] is CAKI-1 renal.
Experiment [10] deals with HOP-92 NSCLC.

Take `O=c1cc(-c2ccccc2)nc2cc(-c3ccco3)[nH]n12`: the GI50 is 16.3 µM in [1]; 6.53 µM in [2]; 47.9 µM in [3]; 6.65 µM in experiment [4]; 4.44 µM in experiment [5]; 1.97 µM in experiment [6]. For the same compound, the GI50 in experiment [7] is 4.22 µM; in experiment [8], 3.47 µM; in experiment [9] it was 5.21 µM; in experiment [10], 10.5 µM. Further, the TGI in experiment [1] was greater than 100 µM; in experiment [2] it was 54.2 µM; in experiment [3], greater than 100 µM; in experiment [4], 44 µM; in experiment [5] it was greater than 100 µM; in experiment [6] it was 5.67 µM. For the same compound, the TGI is greater than 100 µM in experiment [7], 94.5 µM in [8], 55.4 µM in [9] and 93.3 µM in experiment [10].

For the compound `O=[N+]([O-])c1ccc(NN=C2c3ccccc3Cc3ccccc32)c([N+](=O)[O-])c1`, the TGI was 18.2 µM in experiment [1]; greater than 43.4 µM in [2]; greater than 100 µM in [3]; greater than 100 µM in [4]; greater than 100 µM in experiment [5]; 5.8 µM in experiment [6]. The TGI was 22.2 µM in [7], greater than 100 µM in experiment [8], greater than 100 µM in experiment [9] and greater than 100 µM in experiment [10].

With `O=C(Nc1ccc(Cl)cc1F)c1cc(Cl)ccc1O`, the GI50 in experiment [1] was 1.62 µM; in experiment [2], 0.338 µM; in [3], 0.429 µM; in [4] it was 2.41 µM; in [5], 0.253 µM; in [6] it was 0.499 µM. Further, the GI50 was 3.2 µM in experiment [7], 0.256 µM in experiment [8], 0.298 µM in experiment [9] and 0.157 µM in [10]. The TGI in experiment [1] is greater than 44.9 µM; in experiment [2], 1.72 µM; in [3] it was 7.21 µM; in experiment [4], 5.92 µM; in [6], 5.26 µM; in experiment [7] it was greater than 31.2 µM. Further, the TGI stood at 1.17 µM in experiment [8], 2.52 µM in experiment [9] and 0.553 µM in [10].

On to `Cc1ccc2nc(CC(=O)c3ccc4ccccc4c3)c(=O)[nH]c2c1`, for which the TGI in experiment [1], in experiment [2], in experiment [3], in experiment [4], in [5] and in experiment [6] was greater than 100 µM throughout. Moreover, the TGI in experiment [7], in experiment [8], in experiment [9] and in experiment [10] was greater than 100 µM throughout.

On to `CCNC(=O)c1ccc2c(c1)nc(-c1ccc(Cl)cc1)n2-c1cc(C(C)(C)C)[nH]n1`, for which the GI50 was 2.94 µM in experiment [1]; 2.81 µM in [2]; 2.56 µM in [3]; 3.5 µM in [4]; 3.99 µM in experiment [5]; 1.09 µM in experiment [6]. Moreover, the GI50 in [7] is 3.13 µM; in [8], 3.47 µM; in [9], 2.84 µM; in experiment [10], 1.36 µM. The TGI is 40.7 µM in [1]; 8.15 µM in experiment [2]; 9.24 µM in [3]; 14.4 µM in experiment [4]; greater than 100 µM in experiment [5]; 5.35 µM in [6]. Moreover, the TGI in experiment [7] was 9.71 µM; in experiment [8], 17.2 µM; in [9], 46.6 µM; in experiment [10], 7.77 µM.

As for `C/C=C(\C)C(=O)OC1C2C(C)C(=O)OC2C(O)C(C)C2C=CC(=O)C21C` (centres undefined), the TGI in experiment [1] was 35.1 µM; in [2], 34.4 µM; in [3] it was 46.5 µM; in experiment [4] it was 26.3 µM; in experiment [5], 43.3 µM; in [6], 26.1 µM. Besides, the TGI in experiment [7] amounted to 32 µM; in [8], 27 µM; in experiment [9], 28.4 µM; in experiment [10], 50.5 µM.

For `C=C(CN(C)C)C(=O)c1ccc(OC)cc1`, the TGI in experiment [1] worked out at 1.08 µM; in [2], 13.2 µM; in experiment [3] it was 29.4 µM; in experiment [4] it was 1.39 µM; in experiment [5], 4.62 µM; in [6], 26.4 µM. Besides, the TGI in experiment [7] was 25.1 µM; in experiment [8] it was 3.5 µM; in experiment [9], 5.18 µM; in experiment [10], 3.28 µM.

Regarding `O=C(Nc1cccc(-n2cc(-c3ccncc3)c(-c3ccc(O)c(Cl)c3)n2)c1)c1ccc(N2CCOCC2)c(C(F)(F)F)c1`, the GI50 was 1.34 µM in experiment [1]; 34 µM in experiment [2]; greater than 50 µM in experiment [3]; 4.62 µM in experiment [4]; 2.99 µM in experiment [5]; 5 µM in experiment [6]. Moreover, the GI50 in experiment [7] is 2.36 µM; in [8], 2.8 µM; in experiment [9], 2.24 µM; in [10], 0.994 µM. Also, the TGI in experiment [1], in experiment [2], in experiment [3], in experiment [4], in [5] and in experiment [6] was greater than 50 µM each time. For the same compound, the TGI was greater than 50 µM in [7], greater than 50 µM in experiment [8], greater than 50 µM in experiment [9] and 3.81 µM in experiment [10].

Take `C=CCCC(O)c1ccc(CCCCCCCCCCC)o1` (centres undefined): the GI50 in experiment [1] was 19.3 µM; in experiment [2] it was 17.6 µM; in experiment [3] it was 17.7 µM; in experiment [4] it was 17.9 µM; in [5], 13.8 µM; in [6], 16.7 µM. Further, the GI50 in experiment [7] is 16.1 µM; in experiment [8], 15.6 µM; in experiment [9] it was 16 µM; in experiment [10], 18.2 µM. Further, the TGI is 40 µM in [1]; 37.1 µM in experiment [2]; 33.1 µM in experiment [3]; 35.3 µM in experiment [4]; 30.5 µM in experiment [5]; 35.3 µM in [6]. The TGI in experiment [7] was found to be 33.5 µM; in experiment [8], 33.8 µM; in experiment [9] it was 31.5 µM; in experiment [10], 35.9 µM.
